# Measured values taken from patent US11713335B2, “Aminocoumarin compounds and methods of their use” (President and Fellows of Harvard College, priority 2018, dated 2023).
# Like-named read-outs stand apart in the source and are kept apart here.
# Assays:
# Assay type in all cases: cell-based
# S. aureus RN4220 = test: Minimal inhibitory concentration, S. aureus RN4220; details: 16 hour minimal inhibitory concentration at 37° C., read-out: MIC (μM) S. aureus RN4220
# Experimental: (§1) General Procedure for Determination of Minimal Inhibitory Concentrations
# (§2) Overnight cultures (5 mL) of bacterial strains were grown in LB media or TSA media (for S. aureus) at 37° C. and with shaking at 220 rpm until saturation. The overnight culture was diluted serially 1:100 (50 μL in 5 mL sterile media) and then 1:100 (250 μL in 25 mL sterile media). The 25 mL of diluted culture was then dispensed to a sterile 96 well plate (Corning #3370). 198 μL of culture were dispensed into row A and 100 μL of this culture were dispensed into rows B-H. Aminocoumarin compound (DMSO stock) were added to the first row and then the row was mixed by pipetting. 100 μL of culture from row A were transferred to row B and the serial dilution continued until the final 100 μL from row H were discarded. The plate was incubated without shaking in a 37° C. for 16 hours and then read by visible light spectrophotometer (Molecular Devices) at 600 nm. The minimal inhibitory concentration (MIC) was determined as the lowest concentration of compound concentration that inhibited the growth of bacteria.
# (§3) The compounds of the invention were assessed for activities against the pathogens S. aureus RN4220 and MW2, E. cloacae 13047, A. baumannii 19606, K. pneumoniae 700721, E. coli MC4100, 25922. All activities are reported in micromolar (uM) and are 16 hour minimal inhibitory concentrations at 37° C. The assay is detailed in Example 11 and is titled “General Procedure for Determination of Minimal Inhibitory Concentrations.”
# E. coli MC4100 = test: Minimal inhibitory concentration, E. coli MC4100; details: 16 hour minimal inhibitory concentration at 37° C., read-out: MIC (μM) E. coli MC4100 ara+
# Experimental: as §1, §2, §3
# E. cloacae 13047 = test: Minimal inhibitory concentration, E. cloacae 13047; details: 16 hour minimal inhibitory concentration at 37° C., read-out: MIC (μM) E. cloacae 13047
# Experimental: as §1, §2, §3
# K. pneumoniae 700721 = test: Minimal inhibitory concentration, K. pneumoniae 700721; details: 16 hour minimal inhibitory concentration at 37° C., read-out: MIC (μM) K. pneumoniae 700721
# Experimental: as §1, §2, §3
# E. coli 25922 = test: Minimal inhibitory concentration, E. coli 25922; details: 16 hour minimal inhibitory concentration at 37° C., read-out: MIC (μM) E. coli 25922
# Experimental: as §1, §2, §3
# S. aureus MW2 = test: Minimal inhibitory concentration, S. aureus MW2; details: read-out: MIC (μM) S. aureus MW2 (MRSA)
# Experimental: as §1, §2, §3
# A. baumannii 19606 = test: Minimal inhibitory concentration, A. baumannii 19606; details: 16 hour minimal inhibitory concentration at 37° C., read-out: MIC (μM) A. baumannii 19606
# Experimental: as §1, §2, §3
# [1] = 16 hour minimal inhibitory concentration at 37° C.
# [2] = Staphylococcus aureus, RN4220, 16 h
# [3] = Staphylococcus aureus, MRSA, 16 h, 16 hour minimal inhibitory concentration at 37° C.
# [4] = Acinetobacter baumannii, 19606, 16 h
smiles,measurement,setting,value
CO[C@@H]1[C@@H](OC(N)=O)[C@@H](O)[C@H](Oc2ccc3c(O)c(NC(=O)C45CC6CC(CC(F)(C6)C4)C5)c(=O)oc3c2C)OC1(C)C [Compound 100],MIC,S. aureus RN4220,83 µM
same,MIC,E. coli MC4100,>200 µM
same,MIC,E. cloacae 13047,>100 µM
same,MIC,K. pneumoniae 700721,>100 µM
same,MIC,E. coli 25922,>200 µM
same,MIC,S. aureus MW2; [1],41 µM
same,MIC,A. baumannii 19606,>50 µM
CO[C@@H]1[C@@H](OC(N)=O)[C@@H](O)[C@H](Oc2ccc3c(O)c(NC(C)=O)c(=O)oc3c2C)OC1(C)C [Compound 102],MIC,S. aureus RN4220,>100 µM
same,MIC,E. coli MC4100,>200 µM
same,MIC,E. cloacae 13047,>100 µM
same,MIC,K. pneumoniae 700721,>100 µM
same,MIC,E. coli 25922,>200 µM
same,MIC,S. aureus MW2; [1],>100 µM
same,MIC,A. baumannii 19606,>50 µM
CO[C@@H]1[C@@H](OC(N)=O)[C@@H](O)[C@H](Oc2ccc3c(O)c(NC(=O)c4cccc(Oc5cccc(Cl)c5)c4)c(=O)oc3c2C)OC1(C)C [Compound 245],MIC,S. aureus RN4220; [2],10 µM
same,MIC,"E. coli MC4100; Escherichia coli, MC4100, 16 h",38 µM
same,MIC,"E. cloacae 13047; Enterobacter cloacae, 13047",> 100 µM
same,MIC,"K. pneumoniae 700721; Klebsiella pneumoniae, 700721",> 100 µM
same,MIC,"E. coli 25922; Escherichia coli, 25922, 16 h",76 µM
same,MIC,S. aureus MW2; [3],19 µM
same,MIC,A. baumannii 19606; [4],> 50 µM
CO[C@@H]1[C@@H](O)[C@@H](OC(=O)NC2CCCC2)[C@H](Oc2ccc3c(O)c(NC(=O)c4ccc(O)c(CC=C(C)C)c4)c(=O)oc3c2C)OC1(C)C [Compound 107],MIC,S. aureus RN4220,73 µM
same,MIC,E. coli MC4100,>200 µM
same,MIC,E. cloacae 13047,>100 µM
same,MIC,K. pneumoniae 700721,>100 µM
same,MIC,E. coli 25922,>200 µM
same,MIC,S. aureus MW2; [1],73 µM
same,MIC,A. baumannii 19606,9 µM
CO[C@@H]1[C@@H](OC(N)=O)[C@@H](O)[C@H](Oc2ccc3c(O)c(NC(=O)c4cccc(CN)c4)c(=O)oc3c2C)OC1(C)C [Compound 206],MIC,S. aureus RN4220; [2],> 100 µM
same,MIC,"E. coli MC4100; Escherichia coli, MC4100, 16 h",> 200 µM
same,MIC,"E. cloacae 13047; Enterobacter cloacae, 13047",> 100 µM
same,MIC,"K. pneumoniae 700721; Klebsiella pneumoniae, 700721",> 100 µM
same,MIC,"E. coli 25922; Escherichia coli, 25922, 16 h",> 200 µM
same,MIC,S. aureus MW2; [3],> 100 µM
same,MIC,A. baumannii 19606; [4],> 50 µM
CO[C@@H]1[C@@H](OC(N)=O)[C@@H](O)[C@H](Oc2ccc3c(O)c(NC(=O)c4ccnc(Oc5ccccc5)c4)c(=O)oc3c2C)OC1(C)C [Compound 237],MIC,S. aureus RN4220; [2],> 100 µM
same,MIC,"E. coli MC4100; Escherichia coli, MC4100, 16 h",> 100 µM
same,MIC,"E. cloacae 13047; Enterobacter cloacae, 13047",> 100 µM
same,MIC,"K. pneumoniae 700721; Klebsiella pneumoniae, 700721",> 100 µM
same,MIC,"E. coli 25922; Escherichia coli, 25922, 16 h",> 200 µM
same,MIC,S. aureus MW2; [3],> 100 µM
same,MIC,A. baumannii 19606; [4],> 50 µM
CO[C@@H]1[C@@H](OC(N)=O)[C@@H](O)[C@H](Oc2ccc3c(O)c(NC(=O)c4ccc(F)c(CC=C(C)C)c4)c(=O)oc3c2C)OC1(C)C [Compound 101],MIC,S. aureus RN4220; [2],2 µM
same,MIC,"E. coli MC4100; Escherichia coli, MC4100",20 µM
same,MIC,"E. cloacae 13047; Enterobacter cloacae, 13047",> 100 µM
same,MIC,"K. pneumoniae 700721; Klebsiella pneumoniae, 700721",81 µM
same,MIC,"E. coli 25922; Escherichia coli, 25922",20 µM
same,MIC,"S. aureus MW2; Staphylococcus aureus, MRSA, 16 h",1 µM
same,MIC,"A. baumannii 19606; Acinetobacter baumannii, 19606",41 µM
CO[C@@H]1[C@@H](OC(N)=O)[C@@H](O)[C@H](Oc2ccc3c(O)c(NC(=O)c4cc(C)oc4C)c(=O)oc3c2C)OC1(C)C [Compound 200],MIC,S. aureus RN4220; [2],91 µM
same,MIC,"E. coli MC4100; Escherichia coli, MC4100, 16 h",> 200 µM
same,MIC,"E. cloacae 13047; Enterobacter cloacae, 13047",> 100 µM
same,MIC,"K. pneumoniae 700721; Klebsiella pneumoniae, 700721",> 100 µM
same,MIC,"E. coli 25922; Escherichia coli, 25922, 16 h",> 200 µM
same,MIC,S. aureus MW2; [3],91 µM
same,MIC,A. baumannii 19606; [4],> 50 µM
CCCOCCOCC#Cc1ccc(C(=O)Nc2c(O)c3ccc(O[C@@H]4OC(C)(C)[C@H](OC)[C@@H](OC(N)=O)[C@H]4O)c(C)c3oc2=O)cc1 [Compound 226],MIC,S. aureus RN4220; [2],> 100 µM
same,MIC,"E. coli MC4100; Escherichia coli, MC4100, 16 h",> 200 µM
same,MIC,"E. cloacae 13047; Enterobacter cloacae, 13047",> 100 µM
same,MIC,"K. pneumoniae 700721; Klebsiella pneumoniae, 700721",> 100 µM
same,MIC,"E. coli 25922; Escherichia coli, 25922, 16 h",> 200 µM
same,MIC,S. aureus MW2; [3],> 100 µM
same,MIC,A. baumannii 19606; [4],> 50 µM
CO[C@@H]1[C@@H](OC(N)=O)[C@@H](O)[C@H](Oc2ccc3c(O)c(NC(=O)c4cccc(Oc5ccc(Cl)cc5)n4)c(=O)oc3c2C)OC1(C)C [Compound 238],MIC,S. aureus RN4220; [2],10 µM
same,MIC,"E. coli MC4100; Escherichia coli, MC4100, 16 h",152 µM
same,MIC,"E. cloacae 13047; Enterobacter cloacae, 13047",> 100 µM
same,MIC,"K. pneumoniae 700721; Klebsiella pneumoniae, 700721",> 100 µM
same,MIC,"E. coli 25922; Escherichia coli, 25922, 16 h",> 200 µM
same,MIC,S. aureus MW2; [3],10 µM
same,MIC,A. baumannii 19606; [4],> 50 µM
CCCNC(=O)O[C@H]1[C@H](Oc2ccc3c(O)c(NC(=O)c4ccc(O)c(CC=C(C)C)c4)c(=O)oc3c2C)OC(C)(C)[C@H](OC)[C@H]1O [Compound 109],MIC,S. aureus RN4220,1.53 µM
same,MIC,E. coli MC4100,>200 µM
same,MIC,E. cloacae 13047,>100 µM
same,MIC,K. pneumoniae 700721,>100 µM
same,MIC,E. coli 25922,>200 µM
same,MIC,S. aureus MW2; [1],1.53 µM
same,MIC,A. baumannii 19606,10 µM
CO[C@@H]1[C@@H](OC(N)=O)[C@@H](O)[C@H](Oc2ccc3c(O)c(NC(=O)c4cc(Oc5ccccc5)ccn4)c(=O)oc3c2C)OC1(C)C [Compound 239],MIC,S. aureus RN4220; [2],20 µM
same,MIC,"E. coli MC4100; Escherichia coli, MC4100, 16 h",> 200 µM
same,MIC,"E. cloacae 13047; Enterobacter cloacae, 13047",> 100 µM
same,MIC,"K. pneumoniae 700721; Klebsiella pneumoniae, 700721",> 100 µM
same,MIC,"E. coli 25922; Escherichia coli, 25922, 16 h",> 200 µM
same,MIC,S. aureus MW2; [3],20 µM
same,MIC,A. baumannii 19606; [4],> 50 µM
CO[C@@H]1[C@@H](OC(N)=O)[C@@H](O)[C@H](Oc2ccc3c(O)c(NC(=O)c4cccc(-c5cc[nH]n5)c4)c(=O)oc3c2C)OC1(C)C [Compound 201],MIC,S. aureus RN4220; [2],42 µM
same,MIC,"E. coli MC4100; Escherichia coli, MC4100, 16 h",> 200 µM
same,MIC,"E. cloacae 13047; Enterobacter cloacae, 13047",> 100 µM
same,MIC,"K. pneumoniae 700721; Klebsiella pneumoniae, 700721",> 100 µM
same,MIC,"E. coli 25922; Escherichia coli, 25922, 16 h",> 200 µM
same,MIC,S. aureus MW2; [3],42 µM
same,MIC,A. baumannii 19606; [4],> 50 µM
CO[C@@H]1[C@@H](OC(N)=O)[C@@H](O)[C@H](Oc2ccc3c(O)c(NC(=O)c4cccc(-c5ccc(F)c(F)c5)c4)c(=O)oc3c2C)OC1(C)C [Compound 219],MIC,S. aureus RN4220; [2],5 µM
same,MIC,"E. coli MC4100; Escherichia coli, MC4100, 16 h",39 µM
same,MIC,"E. cloacae 13047; Enterobacter cloacae, 13047",> 100 µM
same,MIC,"K. pneumoniae 700721; Klebsiella pneumoniae, 700721",78 µM
same,MIC,"E. coli 25922; Escherichia coli, 25922, 16 h",20 µM
same,MIC,S. aureus MW2; [3],5 µM
same,MIC,A. baumannii 19606; [4],> 50 µM
CO[C@@H]1[C@@H](OC(N)=O)[C@@H](O)[C@H](Oc2ccc3c(O)c(NC(=O)c4cccc(Oc5ccc(C(F)(F)F)cc5)c4)c(=O)oc3c2C)OC1(C)C [Compound 251],MIC,S. aureus RN4220; [2],9 µM
same,MIC,"E. coli MC4100; Escherichia coli, MC4100, 16 h",4.5 µM
same,MIC,"E. cloacae 13047; Enterobacter cloacae, 13047",> 100 µM
same,MIC,"K. pneumoniae 700721; Klebsiella pneumoniae, 700721",> 100 µM
same,MIC,"E. coli 25922; Escherichia coli, 25922, 16 h",9 µM
same,MIC,S. aureus MW2; [3],9 µM
same,MIC,A. baumannii 19606; [4],> 50 µM
C#Cc1ccc(C(=O)Nc2c(O)c3ccc(O[C@@H]4OC(C)(C)[C@H](OC)[C@@H](OC(N)=O)[C@H]4O)c(C)c3oc2=O)cc1Oc1ccccc1 [Compound 257],MIC,S. aureus RN4220; [2],5 µM
same,MIC,"E. coli MC4100; Escherichia coli, MC4100, 16 h",39 µM
same,MIC,"E. cloacae 13047; Enterobacter cloacae, 13047",> 100 µM
same,MIC,"K. pneumoniae 700721; Klebsiella pneumoniae, 700721",71 µM
same,MIC,"E. coli 25922; Escherichia coli, 25922, 16 h",19 µM
same,MIC,S. aureus MW2; [3],5 µM
same,MIC,A. baumannii 19606; [4],> 50 µM
